Experiments:
[1] = Activation of SMN2 promoter in mouse NSC34 cells assessed as induction of beta-lactamase activity relative to nonactivated cells; assay type: functional
[2] = Activation of SMN2 promoter in mouse NSC34 cells assessed as induction of beta-lactamase activity; assay type: functional, cell-based
For activity in this document: test concentration or dose not given here.

Row | SMILES | Activity [1] | EC50 ([2]; Mus musculus, NSC-34) [nM] | EC50 ([2]; nsc34) [nM]
1 | Nc1nc(N)c2c(OCC3CCN(S(=O)(=O)c4ccccc4Cl)CC3)cccc2n1 | 2.1 | 897 | –
2 | CC(Oc1cccc2nc(N)nc(N)c12)c1ccc2c(c1)OCO2 (racemic) | – | 1130 | –
3 | COc1ccc(OCc2cccc3nc(N)nc(N)c23)cc1 | 2.1 | 1400 | –
4 | CC(C)COc1cccc2nc(N)nc(N)c12 | 1.8 | 180 | –
5 | Nc1nc(N)c2c(OC3(c4cccc(Cl)c4)CCCCC3)cccc2n1 | – | 1710 | –
6 | Nc1nc(N)c2c(COc3ccc(Cl)cc3)cccc2n1 | 2 | 190 | –
7 | CC(Oc1cccc2nc(N)nc(N)c12)c1ccc(C(F)(F)F)cc1 (racemic) | – | 50 | –
8 | Nc1nc(N)c2c(OCc3ccco3)cccc2n1 | 1.7 | 300 | –
9 | Cc1ccc(COc2cccc3nc(N)nc(N)c23)cc1 | 2.04 | 220 | –
10 | CC(Oc1cccc2nc(N)nc(N)c12)c1ccc(Cl)c(Cl)c1 (racemic) | – | 320 | –
11 | CC(Oc1cccc2nc(N)nc(N)c12)c1cc(F)cc(F)c1 (racemic) | – | 35 | –
12 | CCC(Oc1cccc2nc(N)nc(N)c12)c1ccc(Cl)cc1 (racemic) | – | 170 | –
13 | Cc1ccc(S(=O)(=O)N2CCC(COc3cccc4nc(N)nc(N)c34)CC2)cc1 | 1.9 | 551 | –
14 | CCCCOc1cccc2nc(N)nc(N)c12 | 2.2 | 140 | –
15 | Nc1nc(N)c2c(OCC3CCN(C(=O)c4ccccc4F)CC3)cccc2n1 | 2.5 | 74 | –
16 | Nc1nc(N)c2c(OCc3cc(F)cc(F)c3)cccc2n1 | 1.9 | 14 | –
17 | Cc1ccccc1C(=O)N1CCC(COc2cccc3nc(N)nc(N)c23)CC1 | 2.5 | 160 | –
18 | Nc1nc(N)c2c(OCC3CCN(C(=O)c4ccc5ccccc5c4)CC3)cccc2n1 | 2.4 | 151 | –
19 | Nc1nc(N)c2c(Oc3ccc(Cl)cc3)cccc2n1 | 1.84 | 2060 | –
20 | CC(Oc1cccc2nc(N)nc(N)c12)c1cccc(F)c1 (racemic; form 1) | – | – | 55
21 | C[C@H](Oc1cccc2nc(N)nc(N)c12)c1cccc2ccccc12 | – | 2390 | –
22 | Nc1nc(N)c2c(OCC3CCN(Cc4cccc5ccccc45)CC3)cccc2n1 | 2 | 43 | –
23 | CC(C)(Oc1cccc2nc(N)nc(N)c12)c1cccc(Cl)c1 | – | 2330 | –
24 | Nc1nc(N)c2c(OCC3CCN(S(=O)(=O)c4ccc(F)cc4F)CC3)cccc2n1 | 2 | 82 | –

Row | SMILES | Activity [1] | EC50 ([2]; Mus musculus, NSC-34) [nM] | EC50 ([2]; nsc34) [nM]
25 | Nc1nc(N)c2c(Oc3ccc4cnccc4c3)cccc2n1 | 2.3 | 1260 | –
26 | Cc1ccc(CN2CCC(COc3cccc4nc(N)nc(N)c34)CC2)cc1.Cl | 1.9 | 24 | –
27 | Nc1nc(N)c2c(OCC3CCCC3)cccc2n1 | 1.9 | 470 | –
28 | Nc1nc(N)c2c(OCc3cc4ccccc4cn3)cccc2n1 | 2.3 | 220 | –
29 | Nc1nc(N)c2c(OCc3cccs3)cccc2n1 | 1.9 | 73 | –
30 | CCCOc1cccc2nc(N)nc(N)c12 | 2.1 | 180 | –
31 | CC(Oc1cccc2nc(N)nc(N)c12)c1cccc(F)c1 (racemic; form 2) | – | 50 | –
32 | Nc1nc(N)c2c(OCC3CCN(C(=O)c4ccc(Cl)cc4)CC3)cccc2n1 | 2.4 | 81 | –
33 | COc1ccc(COc2cccc3nc(N)nc(N)c23)cc1 | 1.7 | 300 | –
34 | Nc1nc(N)c2c(COc3ccccc3I)cccc2n1 | 1.9 | 390 | –
35 | Nc1nc(N)c2c(OCc3ccc(C(F)(F)F)cc3)cccc2n1 | 1.6 | 17 | –
36 | Nc1nc(N)c2c(COc3ccc(F)cc3)cccc2n1 | 2.2 | 350 | –
37 | CC(Oc1cccc2nc(N)nc(N)c12)c1ccccc1C(F)(F)F (racemic) | – | 1010 | –
38 | Nc1nc(N)c2c(OCc3c(F)cccc3F)cccc2n1 | 1.8 | 190 | –
39 | Cc1ccccc1S(=O)(=O)N1CCC(COc2cccc3nc(N)nc(N)c23)CC1 | 2 | 545 | –
40 | Nc1nc(N)c2c(OCC3CCN(Cc4ccc5ccccc5c4)CC3)cccc2n1 | 1.7 | 148 | –
41 | Cc1ccc(C(=O)N2CCC(COc3cccc4nc(N)nc(N)c34)CC2)cc1 | 2.6 | 133 | –
42 | C[C@H](Oc1cccc2nc(N)nc(N)c12)c1ccccc1 | – | 60 | –
43 | Cl.Nc1nc(N)c2c(Oc3cccc4cnccc34)cccc2n1 | 2.04 | 1030 | –
44 | Nc1nc(N)c2c(OCc3cc(F)ccc3F)cccc2n1 | 2 | 47 | –
45 | COc1cccc(COc2cccc3nc(N)nc(N)c23)c1 | 1.6 | 66 | –
46 | Nc1nc(N)c2c(OCC3CCN(Cc4cccc(F)c4F)CC3)cccc2n1 | 2.2 | 38 | –
47 | CC(Oc1cccc2nc(N)nc(N)c12)c1cccc(C(F)(F)F)c1 (racemic) | – | 47 | –
48 | Cc1cc(COc2cccc3nc(N)nc(N)c23)no1 | 2.2 | 280 | –

Row | SMILES | Activity [1] | EC50 ([2]; Mus musculus, NSC-34) [nM] | EC50 ([2]; nsc34) [nM]
49 | Cc1cccc(COc2cccc3nc(N)nc(N)c23)c1 | 1.7 | 120 | –
50 | CC(C)CCOc1cccc2nc(N)nc(N)c12 | 2 | 97 | –
51 | C[C@H](Oc1cccc2nc(N)nc(N)c12)c1ccc2ccccc2c1 | – | 440 | –
52 | C[C@@H](Oc1cccc2nc(N)nc(N)c12)c1ccccc1 | – | 220 | –
53 | Nc1nc(N)c2c(OCC3CCN(C(=O)c4cccc5ccccc45)CC3)cccc2n1 | 2.5 | 35 | –
54 | Nc1nc(N)c2c(OCC3CCN(Cc4ccccc4Cl)CC3)cccc2n1 | 2 | 38 | –
55 | Nc1nc(N)c2c(OCc3cccc(C(F)(F)F)c3)cccc2n1 | 1.5 | 23 | –
56 | Cc1cccc(CN2CCC(COc3cccc4nc(N)nc(N)c34)CC2)c1 | 1.9 | 22 | –
57 | Cc1cccc(C(=O)N2CCC(COc3cccc4nc(N)nc(N)c34)CC2)c1 | 2.2 | 110 | –
58 | Cc1ccccc1CN1CCC(COc2cccc3nc(N)nc(N)c23)CC1 | 1.9 | 18 | –
59 | Nc1nc(N)c2c(Oc3cccc4ccncc34)cccc2n1 | 1.59 | 2440 | –
60 | C[C@@H](Oc1cccc2nc(N)nc(N)c12)c1cccc(Cl)c1 | – | 32 | –
61 | CC(C)(C)C(Oc1cccc2nc(N)nc(N)c12)c1ccc(Cl)cc1 (racemic) | – | 7760 | –
62 | COc1ccccc1COc1cccc2nc(N)nc(N)c12 | 1.6 | 65 | –
63 | CC(C)(C)COc1cccc2nc(N)nc(N)c12 | 2.1 | 650 | –
64 | CC(Oc1cccc2nc(N)nc(N)c12)c1ccccc1Cl (racemic) | – | 290 | –
65 | CC(Oc1cccc2nc(N)nc(N)c12)c1ccccc1 (racemic) | – | 240 | –
66 | Nc1nc(N)c2c(OCC3CCN(Cc4ccc(Cl)cc4)CC3)cccc2n1 | 1.8 | 47 | –
67 | Cc1cccc(S(=O)(=O)N2CCC(COc3cccc4nc(N)nc(N)c34)CC2)c1 | 1.8 | 221 | –
68 | Cc1ccc(Oc2cccc3nc(N)nc(N)c23)cc1 | 1.6 | 1210 | –
69 | Nc1nc(N)c2c(OCc3ccc(F)cc3F)cccc2n1 | 1.8 | 120 | –
70 | CN1CCCCC1COc1cccc2nc(N)nc(N)c12 (stereo unspecified) | 1.9 | 140 | –
71 | Nc1nc(N)c2c(Oc3ccccc3Cl)cccc2n1 | 1.76 | 510 | –
72 | Nc1nc(N)c2c(OC3(c4cccc(Cl)c4)CC3)cccc2n1 | – | 290 | –

Row | SMILES | Activity [1] | EC50 ([2]; Mus musculus, NSC-34) [nM] | EC50 ([2]; nsc34) [nM]
73 | Nc1nc(N)c2c(OCC3CCCCO3)cccc2n1 (stereo unspecified) | 2.1 | 480 | –
74 | Nc1nc(N)c2c(OCC3CCN(S(=O)(=O)c4cccc(Cl)c4)CC3)cccc2n1 | 1.9 | 172 | –
75 | Nc1nc(N)c2c(OCC3CCN(S(=O)(=O)c4ccc(F)c(F)c4)CC3)cccc2n1 | 2.1 | 40 | –
76 | Nc1nc(N)c2c(OCC3CCN(S(=O)(=O)c4cccc5ccccc45)CC3)cccc2n1 | 1.9 | 350 | –
77 | CCCCCOc1cccc2nc(N)nc(N)c12 | 2.1 | 190 | –
78 | Nc1nc(N)c2c(Oc3ccc(F)cc3)cccc2n1 | 1.7 | 1320 | –
79 | Nc1nc(N)c2c(OCC3CCN(C(=O)c4ccc(F)c(F)c4)CC3)cccc2n1 | 2.4 | 104 | –
80 | CC(Oc1cccc2nc(N)nc(N)c12)c1ccc(F)cc1 (racemic) | – | 18 | –
81 | Nc1nc(N)c2c(OCC3CCN(C(=O)c4ccc(F)cc4F)CC3)cccc2n1 | 2.4 | 89 | –
82 | CCCCCCCCCOc1cccc2nc(N)nc(N)c12 | 1.7 | 550 | –
83 | Nc1nc(N)c2c(OCc3cccc(F)c3)cccc2n1 | 1.59 | 55 | –
84 | Nc1nc(N)c2c(OCc3ccccn3)cccc2n1 | 1.9 | 250 | –
85 | CC(Oc1cccc2nc(N)nc(N)c12)c1ccc(Cl)cc1 (racemic) | – | 80 | –
86 | Nc1nc(N)c2c(OCc3ccc(F)cc3)cccc2n1 | 1.8 | 53 | –
87 | Nc1nc(N)c2c(Oc3cccc(Cl)c3)cccc2n1 | 1.74 | 480 | –
88 | Nc1nc(N)c2c(OCC3CCN(S(=O)(=O)c4ccc5ccccc5c4)CC3)cccc2n1 | 2 | 464 | –
89 | Nc1nc(N)c2c(OCC3CCN(Cc4ccc(F)c(F)c4)CC3)cccc2n1 | 2 | 322 | –
90 | Nc1nc(N)c2c(OCC3CCCCC3)cccc2n1 | 1.9 | 2710 | –
91 | Nc1nc(N)c2c(OCc3ccccc3C(F)(F)F)cccc2n1 | 1.6 | 16 | –
92 | Nc1nc(N)c2c(OCC3CCN(S(=O)(=O)c4ccc(Cl)cc4)CC3)cccc2n1 | 2 | 603 | –
93 | Cc1ccc(OCc2cccc3nc(N)nc(N)c23)cc1 | 2.2 | 410 | –
94 | Nc1nc(N)c2c(OCc3cccnc3)cccc2n1 | 2.1 | 24 | –

Reference: ChEMBL document CHEMBL1140748, “Synthesis and biological evaluation of novel 2,4-diaminoquinazoline derivatives as SMN2 promoter activators for the potential treatment of spinal muscular atrophy” (J Med Chem, 2008)
